Source: patent US20260335282A1, “NOVEL 3-ARYLIDENE-2-INDOLINONE DERIVATIVES FOR THERAPEUTIC USE” (ISTANBUL UNIVERSITESI REKTORLUGU, priority 2022, published 2026)

Assays:
Type in all cases: cell-based, human
MIAPaCa-2 cells = experiment: MTT cytotoxicity, pancreas cancer cells MIAPaCa-2; conditions: for selectivity index: MCF-10F/Beas2b vs MIAPaCa-2
In short: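 Cells were seeded at 5000 per well and treated next day with compound at 0.1, 1, 5 and 10 μM (final) for 48 and/or 72 h, with matched DMSO controls. MTT was added for 4 h and formazan was dissolved in DMSO and read at 570/630 nm. % viability against control gave IC50 from dose-response curves.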

[1] = system: pancreas and kidney cancer cells; experiment: Apoptosis detection, Annexin V/PI flow cytometry, pancreas and kidney cancer cells
Description: After incubation with 2-indolinone compounds (IC50 μM concentration; 48 and/or 72 hours), cells are washed twice with PBS and the cell pellet is suspended in Annexin V binding buffer. After this incubation, cells are incubated with FITC-conjugated Annexin V and propidium iodine staining solution for 15 minutes in the dark and at room temperature. Then, cells are analyzed by flow cytometry (Beckman coulter, Navios) (Wlodkowic, D., Skommer, J, Darzynkiewicz, Z. 2009. Flow cytometry-based apoptosis detection, Methods Mol Biol., 559, 1-14).
Whether the 2-indolinone derivatives (5) with the highest selectivity index and general TKI activity stimulated apoptosis and necrosis is determined by Annexin V and propidium iodine staining in pancreas and kidney cancer cells. Annexin V/PI flow cytometry apoptosis values of the tested compounds Y1, Y2, Y3, Y4, Y8 and Y14 are found to be 40% and above in correlation with MTT results. The apoptosis rates of the control groups and the substances are analyzed by t test in GraphPad version 9.0.

MCF-7 cells = experiment: MTT cytotoxicity, breast cancer cells MCF-7; conditions: MTT
In short: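 5000 cells/well; compounds 0.1–10 μM (0.1, 1, 5, 10 μM), 48 and/or 72 h. MTT 5 mg/ml, 4 h; formazan in DMSO; OD 570/630 nm. % viability vs matched-DMSO control; IC50 from dose-response curves; cell-free MTT+compound blanks.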

[2] = MTT, no * mark (incubation time not specified)
[3] = no * mark (incubation time not specified)

Row | Structure (SMILES) | selectivity index (MIAPaCa-2 cells) | IC50 (MIAPaCa-2 cells; [2]) [nM] | Annexin V/PI flow cytometry apoptosis values [1] [%] | IC50 (MCF-7 cells; [3]) [nM] | IC50 (MIAPaCa-2 cells; Homo sapiens, MIA PaCa-2, MTT, no * mark (incubation time not given)) [nM] | IC50 (MCF-7 cells; Homo sapiens, MCF7, no * mark (incubation time not given)) [nM]
1 | O=C1/C(=C\c2c[nH]c3ccccc23)c2ccccc2N1Cc1ccccc1 [Y1] | > 23 | 430 | ≥ 40 | 6340 |  | 
2 | Cc1ccc2c(c1)/C(=C/c1c[nH]c3ccccc13)C(=O)N2Cc1ccccc1 [Y3] | > 77 |  | ≥ 40 |  | 130 | 4750
3 | O=C1/C(=C\c2c[nH]c3ccccc23)c2cc(OC(F)(F)F)ccc2N1Cc1ccccc1 [Y4] | > 19 | 530 | ≥ 40 | > 10000 |  | 
4 | Cc1ccc2c(c1)/C(=C/c1c[nH]c3ccccc13)C(=O)N2Cc1cccc(F)c1 [Y8] | > 19 | 540 | ≥ 40 | 5790 |  | 
